The results in this text go back to patent US20240245783A1, “METALLO-BETA-LACTAMASE INHIBITOR” (priority 2021, published 2024).

The assay has as its system IMP-1-expressing Klebsiella pneumoniae. The assay can be described thus: Survival of Leukopenia mice infected with IMP-1-expressing Klebsiella pneumoniae (Test Example 6). In kind it is in vivo. To be noted: meropenem 10 mg/kg alone subcutaneously; 48 hours; Leukopenia ddY mice. The method, then: DTPA-conjugated cefalexin (compound 1)'s effect of enhancing the drug susceptibility of pathogenic bacteria was examined by an in vivo experiment using bacteria-infected mice. To prepare a compromised Leukopenia mouse model, 0.1 mL of cyclophosphamide monohydrate (Sigma-Aldrich) prepared with PBS was administered intraperitoneally to 4-week-old male ddY mice (Japan SLC) at 250 mg/kg at 4 days before infection. IMP-1-expressing Klebsiella pneumoniae used herein was a clinical isolate provided by Kumamoto University Hospital. The bacteria were cultured overnight with shaking in LB medium at 37° C., then diluted 50-fold with LB medium, and further cultured with shaking, so that the turbidity (600 nm) was 1.5 or higher. The bacteria were centrifuged to remove the medium, washed twice with PBS, and then diluted with PBS to 5×10^5 CFU/mL. In the mouse infection experiment, each Leukopenia mouse was infected with 0.1 mL (5×10^4 CFU) of IMP-1-expressing Klebsiella pneumoniae by intraperitoneal injection. Thirty minutes after infection, 0.1 mL of a mixed solution containing meropenem (Wako Pure Chemical Industries, Ltd.) and compound 1 (DTPA-CEF) was subcutaneously administered to each mouse of a treatment mouse group at 10 mg/kg and 50 mg/kg, respectively. […] Forty-eight hours after infection, mice were assessed for viability. […]

In the case of `C[C@@H](O)[C@H]1C(=O)N2C(C(=O)O)=C(S[C@@H]3CN[C@H](C(=O)N(C)C)C3)[C@H](C)[C@H]12` [meropenem, reference compound], the survival result is reported as “All mice of the meropenem administration group died”.
